Test results reported in patent US20250296971A1, “GASTRIC INHIBITORY PEPTIDE RECEPTOR LIGANDS” (priority 2021, published 2025).
*1 amine or outer side, *2 acyl side, *3 side chain or, on linkers, in order; H or OH if unused. Where a SMILES comes first, the peptide text is derived from it. Bridges are numbered along the chain shown (N, C = ends). [ ]: non-standard residue; d: D form. The star is where a group is joined. X5 = NC(=O)[C@H](CCCCNC(=O)CN1CCN(CC(=O)O)CCN(CC(=O)O)CCN(CC(=O)O)CC1)NC(=O)CCC(=O)NCCCOCCOCCOCCCN*; X13 = O=C(CN1CCN2CCN3CCN(CC1)CC(=O)[O][Lu]([O]C(=O)C2)[O]C(=O)C3)NCCCOCCOCCOCCCN*; X18 = O=C(CCN(CC(=O)[*:2])[*:1])NC[C@H](O)[C@@H](O)[C@H](O)[C@H](O)CO; NH(1-deoxy-D-glucityl) = OC[C@@H](O)[C@@H](O)[C@H](O)[C@@H](O)CN*; DOTA = O=C(O)CN1CCN(CC(=O)O)CCN(CC(=O)*)CCN(CC(=O)O)CC1; Trp(5-Cl) = N[C@@H](Cc1c[nH]c2ccc(Cl)cc12)C(=O)O; Trp(6-Cl) = N[C@@H](Cc1c[nH]c2cc(Cl)ccc12)C(=O)O; Pyridine(2,6-diCH2) = c1cc(C[*:1])nc(C[*:2])c1; Phe(3-Cl) = N[C@@H](Cc1cccc(Cl)c1)C(=O)O; Phe(2-Cl) = N[C@@H](Cc1ccccc1Cl)C(=O)O; Pro(4R-NH2) = N[C@H]1CN[C@H](C(=O)O)C1; 2Nal = N[C@@H](Cc1ccc2ccccc2c1)C(=O)O; mXylylene = c1cc(C[*:1])cc(C[*:2])c1; Glutaryl = O=C(CCCC(=O)[*:2])[*:1]; X7 = c1cc(CSCCN[*:2])cc(C[*:1])c1; Hyp = O=C(O)[C@@H]1C[C@@H](O)CN1; X1 = O=C(CN1CCC(N[*:1])CC1)[*:2]; Suc = O=C(CCC(=O)[*:2])[*:1]; Api = NC1(C(=O)O)CCNCC1; Thp = NC1(C(=O)O)CCOCC1; Aib = CC(C)(N)C(=O)O

biological target: T1, GIPR (CHO-K1-hGIPR cells) (Homo sapiens, UniProt P48546); assay: FACS binding assay; details: competition with 20 nM GIP-057, 4° C. for 1 hour, read-out: pIC50 Category (converted)
T1 construct: host or cells: CHO-K1
T1 sequence (P48546 22-466): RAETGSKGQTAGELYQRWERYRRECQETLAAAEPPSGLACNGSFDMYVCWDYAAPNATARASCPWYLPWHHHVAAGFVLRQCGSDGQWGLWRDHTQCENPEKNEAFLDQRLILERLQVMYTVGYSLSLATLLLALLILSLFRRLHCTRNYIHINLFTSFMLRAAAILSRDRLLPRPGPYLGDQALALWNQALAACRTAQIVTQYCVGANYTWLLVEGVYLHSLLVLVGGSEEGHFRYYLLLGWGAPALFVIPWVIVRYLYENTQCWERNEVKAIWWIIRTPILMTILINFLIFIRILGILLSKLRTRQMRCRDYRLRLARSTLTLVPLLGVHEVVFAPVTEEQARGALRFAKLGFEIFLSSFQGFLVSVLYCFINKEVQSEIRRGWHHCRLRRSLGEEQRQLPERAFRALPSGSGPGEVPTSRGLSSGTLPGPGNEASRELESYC
In short: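 CHO-K1 cells stably expressing human GIPR were detached with Accutase, suspended at 500.000 cells per mL in PBS with 1% FCS, and washed ice-cold. Bound peptide was detected with 1 μg/mL APC-streptavidin for 30 min on ice.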

Row | Compound | IC50
1 | CC[C@H](C)[C@@H]1NC(=O)[C@H](CC(C)C)NC(=O)C(C)(C)NC(=O)[C@@H](NC(=O)[C@@H](CC(C)C)NC(=O)[C@H](CCC(=O)O)NC(=O)[C@@H]2CCCN2C(=O)[C@H](Cc2c[nH]c3cc(Cl)ccc23)NC(=O)[C@H](Cc2c[nH]c3ccccc23)NC(=O)[C@H](CC(=O)O)NC(C)=O)CSCc2cccc(c2)CSC[C@@H](C(=O)NCCCOCCOCCOCCCNC(=O)CCC(=O)N[C@@H](CCCCNC(=O)CN2CCN(CC(=O)O)CCN(CC(=O)O)CCN(CC(=O)O)CC2)C(N)=O)NC1=O [GIP-282, Ac-Asp-Trp-6Clw-Pro-Glu-leu-[Cys(3MeBn)-Aib-Leu-Ile-Cys]-Ttds-Lys(DOTA)-NH2] (Ac-DW[Trp(6-Cl)]PE[dL]C[Aib]LIC-X5; linker 7-11 via mXylylene) | 100 to 794 nM
2 | CC[C@H](C)[C@@H]1NC(=O)[C@H](CC(C)C)NC(=O)C(C)(C)NC(=O)[C@@H](NC(=O)[C@H](CC(C)C)NC(=O)[C@H](CCC(=O)O)NC(=O)[C@@H]2CCCN2C(=O)[C@H](Cc2c[nH]c3ccccc23)NC(=O)[C@H](Cc2ccc3ccccc3c2)NC(=O)[C@H](CC(=O)O)NC(C)=O)CSCc2cccc(c2)CSC[C@@H](C(=O)NCCCOCCOCCOCCCNC(=O)CCC(=O)N[C@@H](CCCCNC(=O)CN2CCN(CC(=O)O)CCN(CC(=O)O)CCN(CC(=O)O)CC2)C(N)=O)NC1=O [GIP-272, Ac-Asp-2Ni-Trp-Pro-Glu-Leu-[Cys(3MeBn)-Aib-Leu-Ile-Cys]-Ttds-Lys(DOTA)-NH2] (Ac-D[2Nal]WPELC[Aib]LIC-X5; linker 7-11 via mXylylene) | 100 to 794 nM
3 | CC[C@H](C)[C@@H]1NC(=O)[C@H](CC(C)C)NC(=O)C2(CCOCC2)NC(=O)[C@@H](NC(=O)[C@@H](CC(C)C)NC(=O)[C@H](CCC(=O)O)NC(=O)[C@@H]2C[C@@H](O)CN2C(=O)[C@H](Cc2ccccc2Cl)NC(=O)[C@H](Cc2c[nH]c3ccccc23)NC(=O)[C@H](CC(=O)O)NC(C)=O)CSCc2cccc(n2)CSC[C@@H](C(N)=O)NC1=O [GIP-349, Ac-Asp-Trp-Ocf-Hyp-Glu-leu-[Cys(2Lut)-Thp-Leu-Ile-Cys]-NH2] (Ac-DW[Phe(2-Cl)][Hyp]E[dL]C[Thp]LIC-NH2; linker 7-11 via Pyridine(2,6-diCH2)) | > 1000 nM
4 | CC[C@H](C)[C@@H]1NC(=O)[C@H](CC(C)C)NC(=O)[C@H](C)NC(=O)[C@@H](NC(=O)[C@H](CC(C)C)NC(=O)[C@H](CCC(=O)O)NC(=O)[C@@H]2CCCN2C(=O)[C@H](Cc2c[nH]c3ccccc23)NC(=O)[C@@H](Cc2c[nH]c3ccccc23)NC(=O)[C@H](CC(=O)O)NC(=O)[C@H](Cc2ccc(O)cc2)NC(=O)[C@@H](N)CCSC)CSCc2cccc(c2)CSC[C@@H](C(N)=O)NC1=O [GIP-308, H-Met-Tyr-Asp-trp-Trp-Pro-Glu-Leu-[Cys(3MeBn)-Ala-Leu-Ile-Cys]-NH2] (H-MYD[dW]WPELCALIC-NH2; linker 9-13 via mXylylene) | 100 to 794 nM

same assay, conditions: competition with 20 nM GIP-057, 4° C., 1 hour, read-out: pIC50 Category (converted)

Row | Compound | IC50
5 | CC[C@H](C)[C@@H]1NC(=O)[C@H](CC(C)C)NC(=O)C2(CCOCC2)NC(=O)[C@@H](NC(=O)[C@@H](CC(C)C)NC(=O)[C@H](CCC(=O)O)NC(=O)[C@@H]2C[C@@H](O)CN2C(=O)[C@H](Cc2c[nH]c3ccc(Cl)cc23)NC(=O)[C@H](Cc2cccc(Cl)c2)NC(=O)[C@H](CC(=O)O)NC(C)=O)CSCc2cccc(n2)CSC[C@@H](C(N)=O)NC1=O [GIP-209, Ac-Asp-Mcf-5Clw-Hyp-Glu-leu-[Cys(2Lut)-Thp-Leu-Ile-Cys]-NH2] (Ac-D[Phe(3-Cl)][Trp(5-Cl)][Hyp]E[dL]C[Thp]LIC-NH2; linker 7-11 via Pyridine(2,6-diCH2)) | < 10 nM
6 | CC[C@H](C)[C@@H]1NC(=O)[C@H](CC(C)C)NC(=O)C2(CCOCC2)NC(=O)[C@@H](NC(=O)[C@@H](CC(C)C)NC(=O)[C@H](CCC(=O)O)NC(=O)CN(CCC(=O)NC[C@H](O)[C@@H](O)[C@H](O)[C@H](O)CO)C(=O)[C@H](Cc2c[nH]c3ccc(Cl)cc23)NC(=O)[C@H](Cc2c[nH]c3ccccc23)NC(=O)[C@H](CC(=O)O)NC(C)=O)CSCc2cccc(n2)CSC[C@@H](C(N)=O)NC1=O [GIP-176, Ac-Asp-Trp-5Clw-Nglu(AGLU)-Glu-leu-[Cys(2Lut)-Thp-Leu-Ile-Cys]-NH2] (Ac-DW[Trp(5-Cl)][X18]E[dL]C[Thp]LIC-NH2; linker 7-11 via Pyridine(2,6-diCH2)) | < 10 nM
7 | CC[C@H](C)[C@@H]1NC(=O)[C@H](Cc2c[nH]c3ccccc23)NC(=O)C2(CCOCC2)NC(=O)[C@@H](NC(=O)[C@@H](CC(C)C)NC(=O)[C@H](CCC(=O)O)NC(=O)[C@@H]2C[C@@H](O)CN2C(=O)[C@H](Cc2c[nH]c3ccc(Cl)cc23)NC(=O)[C@H](Cc2c[nH]c3ccccc23)NC(=O)[C@H](CC(=O)O)NC(C)=O)CSCc2cccc(n2)CSC[C@@H](C(N)=O)NC1=O [GIP-233, Ac-Asp-Trp-5Clw-Hyp-Glu-leu-[Cys(2Lut)-Thp-Trp-Ile-Cys]-NH2] (Ac-DW[Trp(5-Cl)][Hyp]E[dL]C[Thp]WIC-NH2; linker 7-11 via Pyridine(2,6-diCH2)) | < 10 nM
8 | CC[C@H](C)[C@@H]1NC(=O)[C@H](CC(C)C)NC(=O)C2(CCN(C(=O)CN3CCN(CC(=O)O)CCN(CC(=O)O)CCN(CC(=O)O)CC3)CC2)NC(=O)[C@@H](NC(=O)[C@@H](CC(C)C)NC(=O)[C@H](CCC(=O)O)NC(=O)[C@@H]2C[C@@H](N)CN2C(=O)[C@H](Cc2c[nH]c3ccc(Cl)cc23)NC(=O)[C@H](Cc2c[nH]c3ccccc23)NC(=O)[C@H](CC(=O)O)NC(=O)CCCC(=O)NC[C@H](O)[C@@H](O)[C@H](O)[C@H](O)CO)CSCc2cccc(n2)CSC[C@@H](C(=O)NC2CCN(CC(=O)N[C@H](CCC(=O)NC[C@H](O)[C@@H](O)[C@H](O)[C@H](O)CO)C(N)=O)CC2)NC1=O [GIP-052, AGLU-Glutar-Asp-Trp-5Clw-Tap-Glu-leu-[cys(2Lut)-Apc(DOTA)-Leu-Ile-cys]-APAc-glu(AGLU)-NH2] ({NH(1-deoxy-D-glucityl)-Glutaryl}-DW[Trp(5-Cl)][Pro(4R-NH2)]E[dL]C[Api](DOTA)LIC[X1][dE](NH(1-deoxy-D-glucityl))-NH2; linker 7-11 via Pyridine(2,6-diCH2)) | 10 to 79.4 nM

same assay, conditions: pIC50 Category, competition with 20 nM GIP-057, 4° C., 1 hour

Row | Compound | IC50
9 | CC[C@H](C)[C@@H]1NC(=O)[C@H](CC(C)C)NC(=O)C(C)(C)NC(=O)[C@@H](NC(=O)[C@@H](CC(C)C)NC(=O)[C@H](CCC(=O)O)NC(=O)[C@@H]2C[C@@H](O)CN2C(=O)[C@H](Cc2c[nH]c3ccc(Cl)cc23)NC(=O)[C@H](Cc2c[nH]c3ccccc23)NC(=O)[C@H](CC(=O)O)NC(=O)CCC(=O)NCCCOCCOCCOCCCNC(=O)CN2CCN3CCN4CCN(CC2)CC(=O)[O][Lu]([O]C(=O)C3)[O]C(=O)C4)CSCc2cccc(c2)CSCCNC1=O [GIP-159, LuDOTA-Ttds-Asp-Trp-5Clw-Hyp-Glu-leu-[Cys(3MeBn)-Aib-Leu-Ile-AET]] ({X13-Suc}-DW[Trp(5-Cl)][Hyp]E[dL]C[Aib]LI; linker 7-C via X7) | < 10 nM
